Assays:
Assay in all cases: relative viability (nuclei count vs DMSO), 5 days (fraction); higher = more cells survive
Silmitasertib + Olaparib = compound: O=C(O)c1ccc2c(c1)nc(Nc1cccc(Cl)c1)c1ccncc12 [Silmitasertib] + O=C(c1cc(Cc2n[nH]c(=O)c3ccccc23)ccc1F)N1CCN(C(=O)C2CC2)CC1 [Olaparib] (partner 8 µM)
Procedure, shortened: (§1)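 Values are medians from duplicate plates. Each reflects relative viability, defined as the nuclei count of treated wells over that of vehicle wells. Lung cancer cell lines in 1536-well plates were pin-tool dosed one day after seeding with one drug alone or with a fixed anchor-drug dose plus five library-drug doses (not always all listed) in √10 steps, then fixed, stained and imaged at 4× after 5 days.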

[1] = compound: O=C(O)c1ccc2c(c1)nc(Nc1cccc(Cl)c1)c1ccncc12 [Silmitasertib] + C[C@]1(O)C[C@@H](c2nc(-c3ccc4ccc(-c5ccccc5)nc4c3)c3c(N)nccn32)C1 [Linsitinib] (partner 1 µM)
Procedure, shortened: as §1

[2] = compound: O=C(O)c1ccc2c(c1)nc(Nc1cccc(Cl)c1)c1ccncc12 [Silmitasertib] + Nc1nc2[nH]cc(CCc3ccc(C(=O)N[C@@H](CCC(=O)O)C(=O)O)cc3)c2c(=O)[nH]1 [Pemetrexed] (partner 0.2 µM)
Procedure, shortened: as §1

[3] = compound: O=C(O)c1ccc2c(c1)nc(Nc1cccc(Cl)c1)c1ccncc12 [Silmitasertib] + CC(=O)Nc1cccc(-n2c(=O)n(C3CC3)c(=O)c3c(Nc4ccc(I)cc4F)n(C)c(=O)c(C)c32)c1 [Trametinib] (partner 0.02 µM)
Procedure, shortened: as §1

[4] = compound: O=C(O)c1ccc2c(c1)nc(Nc1cccc(Cl)c1)c1ccncc12 [Silmitasertib] + C[C@@H](Oc1cc(-c2cnn(C3CCNCC3)c2)cnc1N)c1c(Cl)ccc(F)c1Cl [Crizotinib] (partner 1 µM)
Procedure, shortened: as §1

| Cell Line | relative viability (Silmitasertib + Olaparib; first compound 0.04 µM) | relative viability (Silmitasertib + Olaparib; first compound 0.4 µM) | relative viability (Silmitasertib + Olaparib; first compound 1.265 µM) | relative viability (Silmitasertib + Olaparib; first compound 4 µM) | relative viability ([1]; first compound 0.04 µM) | relative viability ([1]; first compound 0.4 µM) | relative viability ([1]; first compound 1.265 µM) | relative viability ([1]; first compound 4 µM) | relative viability ([2]; first compound 0.04 µM) | relative viability ([2]; first compound 0.4 µM) | relative viability ([2]; first compound 1.265 µM) | relative viability ([2]; first compound 4 µM) | relative viability ([3]; first compound 0.04 µM) | relative viability ([3]; first compound 0.4 µM) | relative viability ([3]; first compound 1.265 µM) | relative viability ([3]; first compound 4 µM) | relative viability ([4]; first compound 0.04 µM) | relative viability ([4]; first compound 0.4 µM) | relative viability ([4]; first compound 1.265 µM) | relative viability ([4]; first compound 4 µM) |
| --- | --- | --- | --- | --- | --- | --- | --- | --- | --- | --- | --- | --- | --- | --- | --- | --- | --- | --- | --- | --- |
| 201T | 0.82 | 0.756 | 0.945 | 0.953 | 1.03 | 1.02 | 0.889 | 1.01 | 0.381 | 0.229 | 0.341 | 0.381 | 0.738 | 0.709 | 0.804 | 0.893 | 0.999 | 0.991 | 1.07 | 1.18 |
| A-427 | 0.87 | 0.616 | 0.762 | 0.579 | 1.11 | – | 1.28 | 1.04 | 1.04 | 0.826 | 1.05 | 0.669 | 0.952 | 0.595 | 0.785 | 0.497 | 0.888 | – | 0.805 | 0.63 |
| ABC-1 | 0.814 | 0.863 | 0.777 | 0.738 | 0.788 | 1.13 | 0.523 | 0.294 | – | – | – | – | – | – | – | – | 1.27 | 1 | 0.516 | 0.445 |
| BEN | 1.31 | 0.506 | 0.964 | 1.15 | 1.03 | 0.892 | 1.01 | 0.882 | 0.905 | 0.715 | 0.703 | 0.609 | 1.14 | 0.856 | 1.02 | 0.968 | 0.974 | 0.827 | 0.739 | 0.846 |
| CAL-12T | 0.688 | 0.465 | 0.561 | 0.531 | 0.93 | 0.826 | 0.652 | 0.475 | 1.35 | 1.06 | 0.889 | 0.818 | 0.444 | 0.3 | 0.394 | 0.284 | 0.685 | 0.423 | 0.542 | 0.318 |
| COR-L23 | 0.393 | 0.31 | 0.325 | 0.283 | 1.02 | 0.843 | 0.821 | 0.638 | 0.206 | 0.223 | 0.181 | 0.192 | 0.737 | 0.369 | 0.497 | 0.456 | 0.665 | 0.67 | 0.727 | 0.629 |
| COR-L 105 | 0.716 | 0.614 | 0.689 | 0.5 | 0.977 | 0.82 | 0.92 | 0.574 | 1.05 | 1.19 | 0.951 | 0.785 | 0.491 | 0.434 | 0.401 | 0.478 | 0.881 | 0.679 | 0.702 | 0.501 |
| ChaGo-K-1 | 0.421 | 0.288 | 0.376 | 0.399 | – | – | – | – | 0.265 | 0.24 | 0.253 | 0.275 | 0.938 | 0.704 | 0.821 | 0.907 | 1.35 | 1 | 1.07 | 0.931 |
| EKVX | 0.889 | – | 0.7 | 0.784 | 1.15 | 0.869 | 0.711 | 0.677 | 0.394 | – | 0.383 | 0.338 | 0.385 | – | 0.269 | 0.47 | 1.15 | 0.819 | 0.653 | 0.895 |
| EMC-BAC-2 | 0.477 | 0.358 | 0.333 | 0.283 | 0.891 | 0.769 | 0.709 | 0.686 | 0.455 | 0.319 | 0.423 | 0.369 | 0.977 | 0.845 | 0.684 | 0.698 | 0.847 | 0.701 | 0.653 | 0.721 |
| EPLC-272H | 1.02 | 0.563 | 0.489 | 0.0904 | 1.31 | – | 0.84 | 0.862 | 0.374 | 0.359 | 0.385 | 0.122 | 0.319 | – | 0.214 | 0.279 | 0.992 | – | 0.469 | 0.407 |
| H3255 | 0.579 | 0.492 | 0.549 | 0.53 | 1.09 | 0.944 | 0.903 | 0.991 | 0.602 | 0.5 | 0.394 | 0.499 | 0.651 | 0.604 | 0.527 | 0.565 | 0.888 | 0.701 | 0.883 | 0.864 |
| HARA | 1.25 | 0.595 | 0.634 | 0.276 | 1.1 | 0.753 | 0.77 | 0.729 | 0.268 | 0.215 | 0.213 | 0.235 | 0.97 | 0.594 | 0.419 | 0.487 | 1.1 | 0.757 | 0.621 | 0.88 |
| HCC-15 | 0.777 | 0.508 | 0.595 | 0.39 | 0.882 | 0.681 | 0.671 | 0.475 | 0.242 | 0.229 | 0.216 | 0.215 | 0.407 | 0.343 | 0.275 | 0.286 | 0.804 | 0.603 | 0.71 | 0.575 |
| HCC-44 | 0.972 | 0.822 | 1.06 | 1.02 | 0.7 | 0.673 | 0.665 | 0.691 | 0.63 | 0.667 | 0.71 | 0.661 | 1.15 | 0.906 | 1.02 | 1.07 | 0.729 | 0.697 | 0.839 | 0.771 |
| HCC-78 | 0.92 | 0.42 | 0.509 | 0.734 | 0.723 | 0.469 | 0.375 | 0.481 | 0.91 | 0.886 | 0.613 | 0.918 | 0.794 | 0.615 | 0.537 | 0.656 | 0.379 | 0.31 | 0.298 | 0.323 |
| HCC-366 | 0.396 | 0.213 | 0.373 | 0.387 | 0.869 | – | 0.366 | 0.379 | 0.13 | 0.162 | 0.175 | 0.128 | 0.354 | 0.337 | 0.318 | 0.255 | 0.581 | – | 0.472 | 0.395 |
